Here are results for ten compounds from patent publication US20230357292A1, “MULTI-COORDINATE GOLD-PHOSPHINE COMPOUNDS AND METHOD OF USE” (University of Kentucky Research Foundation, priority 2020, published 2023).

One data set deals with MDA-MB-231 (breast). Kind of data set: Cell viability, crystal violet assay, MDA-MB-231. It counts as cell-based, human. The note with it: for IC50: MDA-MB-231 (breast), 4,000 cells/well, treated 72 h, mean ± SD (n = 3). From the text:
The plates were washed with water and dried again.

A further data set deals with H460 (lung). Conditions: H460 (lung), 4,000 cells/well, treated 72 h, mean ± SD (n = 3). As for the experimental part:
(§1) All cell lines (OVCAR8, A2780, H460, and MDA-MB-231) were cultivated in RPMI or DMEM supplemented with 10% FBS, 1% penicillin/streptomycin, and 1% amphotericin. All cells were grown at 310K in a humidified atmosphere containing 5% CO2.
(§2) Various established human ovarian, lung, and breast cancer cell lines were seeded in 96-well plates (4000 cells/well) and were incubated with RPMI 1640 or DMEM (100 μL) supplemented with 10% FBS, 1% penicillin/streptomycin, and 1% amphotericin for 24 h and at 37° C. They were then treated with AuPhos compounds at increasing concentrations for 72 h from stock solutions following serial dilutions, in which AuPhos stock solutions were prepared in DMSO/media mixture (% v/v=20:80). Thereafter, cellular viability was assessed via the established crystal violet colorimetric assay. In brief, cells were fixed with 50 μL of a 1% glutaraldehyde solution and placed in an incubator (37° C., 5% CO2) for 1 hour. The plates were washed with water by running them under a gentle flow of tap water. The plates were air-dried, and crystal violet reagent was added to each well and allowed to incubate at room temperature for 20 min. The plates were washed with water and dried again. Methanol (200 μL/well) was added to each well, and the measurements of absorbance were subsequently performed using a Biotek Synergy H1 Plate Reader at 570 nm (peak absorbance).

The test system of the next data set is A2780 (ovarian). Conditions: A2780 (ovarian), 4,000 cells/well, treated 72 h, mean ± SD (n = 3). As for the experimental part:
as §1, §2

A further data set concerns OVCAR8 (ovarian). The note with it: OVCAR8 (ovarian), 4,000 cells/well, treated 72 h, mean ± SD (n = 3). The method, then:
as §1, §2

For a further data set, the system named is 4T1 tumor. The experiment in a line: In vivo comparative experiment of AuPhos-89 and cisplatin, 4T1, IP. The arrangement: species or system BALB/c mice. As for the experimental part:
Mice were implanted with 2,000,000 4T1 cells subcutaneously on their flanks. […] The control group was injected with a PBS solution containing 1.5% DMSO and 12% Kolliphor. Injection and tumor-size/body-weight measurement was performed three days a week.
Mice organs (heart, lung, liver, kidney, spleen, and tumor) were fixed in freshly prepared paraformaldehyde (4% in PBS), the fixation time was 24 hours. And those processed for paraffin sectioning. The organs sections of 5 μm were stained with H&E staining and used for histological examination of the organs and tumor. A total of 5 sections per tissues (spanning the full depth of the organ) were examined and photographed using a Nikon Eclipse 55i microscope. […]

The subject of another data set is MDA-MB-231 cells. Conditions: 2 mM for 3 h, FACS. The method, then: MDA-MB-231 cells were seeded at a density of 5×10^5 cells/well in a 6-well clear bottom plate with a final media volume of 2 mL. The cells were allowed to adhere overnight at 37° C. A stock of AuPhos-89 was prepared fresh in DMSO/DMEM (% v/v=20:80) and added to the desired well at a concentration of 1 μM with a final volume of 2.5 mL and incubated for 15 h at 37° C. A stock of H2O2 was prepared in PBS and the cells treated at a final concentration of 2 mM for 3 hours and used as positive control. When ready for analysis, medium was removed and the wells washed with 5 mL of PBS. The cells were trypsinized (1 mL), 5 mL of DMEM were added to each well, and total volume collected and centrifuged to pellet the cells. The cells were resuspended in 2 mL of fresh media, counted, and reconstituted to a concentration of 1×10^5 cells/mL. The cells were centrifuged again, and the pellet suspended in 500 μL of Annexin binding buffer. To each sample was added 5 μl of Annexin V-FITC and 5 μl PI and incubated in the dark at room temperature for 5 minutes. The samples were then subjected to FACS analysis.

In general, IC50 refers to the concentration that gives 50% inhibition.

In turn, `c1ccc(P(c2ccccc2)c2ccccc2P(c2ccccc2)c2ccccc2)cc1` [1,2-Bis(diphenylphosphino)benzene, reference compound] showed an IC50 in the data set with MDA-MB-231 (breast) (Homo sapiens) of 1370 ± 450 nM. Also, the “less cytotoxicity compared with the AuPhos compounds (Table 1)” value in the data set on MDA-MB-231 (breast) (MDA-MB-231) is listed as ~6 times.

As to `Cl.[Cl][Au-]1([c]2ccccc2Nc2ccccn2)[P+](c2ccccc2)(c2ccccc2)c2ccccc2[P+]1(c1ccccc1)c1ccccc1` [AuPhos-82, (2-anilinopyridine)[1,2-Bis(diphenylphosphino)benzene]gold(III) Dichloride], the IC50 in the data set with MDA-MB-231 (breast) amounted to 220 ± 200 nM; in the data set with H460 (lung), 1040 ± 170 nM; with A2780 (ovarian) it was 340 ± 40 nM; in the data set with OVCAR8 (ovarian), 850 ± 60 nM.

Consider `Cl.[Cl][Au-]1([c]2ccccc2Cc2ccccn2)[P+](c2ccccc2)(c2ccccc2)c2ccccc2[P+]1(c1ccccc1)c1ccccc1` [AuPhos-84, (2-benzylpyridine)[1,2-Bis(diphenylphosphino)benzene]gold(III) Dichloride], for which the IC50 came to 240 ± 160 nM in the data set on MDA-MB-231 (breast), 760 ± 150 nM with H460 (lung), 250 ± 60 nM in the data set on A2780 (ovarian) and 1240 ± 140 nM in the data set on OVCAR8 (ovarian).

With `Cl.O=C(c1ccccn1)c1cccc[c]1[Au-]1([Cl])[P+](c2ccccc2)(c2ccccc2)c2ccccc2[P+]1(c1ccccc1)c1ccccc1` [AuPhos-85, (2-benzoylpyridine)[1,2-Bis(diphenylphosphino)benzene]gold(I) Dichloride], the half-maximal inhibitory concentration (IC50) with MDA-MB-231 (breast) was 260 ± 60 nM; in the data set with H460 (lung), 340 ± 70 nM; with A2780 (ovarian) it was 150 ± 30 nM; in the data set with OVCAR8 (ovarian), 640 ± 110 nM.

Regarding `Cl.[Cl][Au-]1([c]2cccc3ccc4cccnc4c23)[P+](c2ccccc2)(c2ccccc2)c2ccccc2[P+]1(c1ccccc1)c1ccccc1` [AuPhos-86, (benzo[h]quinoline)[1,2-Bis(diphenylphosphino)benzene]gold(III) Dichloride], the concentration for half-maximal inhibition (IC50) turned out to be 290 ± 40 nM in the data set on MDA-MB-231 (breast), 340 ± 70 nM with H460 (lung), 330 ± 40 nM in the data set with A2780 (ovarian) and 820 ± 440 nM in the data set with OVCAR8 (ovarian).

Consider `Cc1ccc(-c2ccccn2)[c]([Au-]2([Cl])[P+](c3ccccc3)(c3ccccc3)c3ccccc3[P+]2(c2ccccc2)c2ccccc2)c1.Cl` [AuPhos-87, (2-(p-tolyl)pyridine)[1,2-Bis(diphenylphosphino)benzene]gold(III) Dichloride], for which the IC50 in the data set with MDA-MB-231 (breast) turned out to be 450 ± 190 nM; with H460 (lung), 710 ± 90 nM; in the data set on A2780 (ovarian) it was 180 ± 40 nM; in the data set on OVCAR8 (ovarian), 820 ± 760 nM.

For the compound `Cl.O=Cc1ccc(-c2ccccn2)[c]([Au-]2([Cl])[P+](c3ccccc3)(c3ccccc3)c3ccccc3[P+]2(c2ccccc2)c2ccccc2)c1` [AuPhos-88, (4-(2-pyridyl)benzaldehyde)[1,2-Bis(diphenylphosphino)benzene]gold(III) Dichloride], the 50% inhibitory concentration (IC50) in the data set with MDA-MB-231 (breast) is 370 ± 210 nM; in the data set with H460 (lung) it was 400 ± 30 nM; in the data set with A2780 (ovarian), 270 ± 20 nM; with OVCAR8 (ovarian), 850 ± 70 nM.

As for `N.N.[Cl][Pt][Cl]` [cisplatin, reference compound], in the data set on 4T1 tumor (AuPhos-89 10 mg kg−1 IP, cisplatin 3 mg kg−1 IP), the “tumor inhibition compared with the control group” value was “significant tumor inhibition”. Further, the tumor volume result with 4T1 tumor (six treatments, thrice a week, IP, AuPhos-89 10 mg kg−1, cisplatin 3 mg/kg, versus vehicle control) is given as “comparable results to AuPhos-89 treatment”.

As for `OO` [hydrogen peroxide, reference compound], the “apoptosis, positive control” value in the data set on MDA-MB-231 cells is listed as “significant apoptosis”.

Take “(2-phenoxypyridine)[1,2-Bis(diphenylphosphino) benzene]gold(III) Dichloride [AuPhos-83]”: the IC50 in the data set with MDA-MB-231 (breast) was found to be 220 ± 70 nM; with H460 (lung), 270 ± 60 nM; in the data set with A2780 (ovarian), 220 ± 10 nM; in the data set on OVCAR8 (ovarian), 890 ± 140 nM.
